Measured values taken from patent EP0166353B1, “Benzofused lactams useful as antihypertensive agents and as cholecystokinin antagonists” (Merck & Co., Inc., priority 1984, dated 1986).

Molecular target: CCK receptor
Experiment: 125I-CCK-33 receptor binding assay
Conditions: tissue not stated (methods given for rat pancreas and guinea pig brain cortex membranes); read-out: IC₅₀, inhibition of specific ¹²⁵I-CCK-33 binding
Description: CCK-33 was radiolabeled with ¹²⁵I-Bolton Hunter reagent (2000 Ci/mmole) as described by Sankara et al. (J. Biol. Chem. 254: 9349-9351, 1979). Receptor binding was performed according to Innis and Snyder (Proc. Natl. Acad. Sci. 77: 6917-6921, 1980) with the minor modification of adding the additional protease inhibitors, phenylmethane sulfonyl fluoride and o-phenanthroline. The latter two compounds have no effect on the ¹²⁵I-CCK receptor binding assay.
Male Sprague-Dawley rats (200-350g) were sacrificed by decapitation. The whole pancreas was dissected free of fat tissue and was homogenized in 20 volumes of ice-cold 50 mM, Tris HCl (pH 7.7 at 25°C) with a Brinkmann Polytron PT 10. The homogenates were centrifuged at 48,000 g for 10 min. […] The supernatant was aspirated and discarded, pellets were counted with a Beckman gamma 5000. […]
Male Hartley guinea pigs (300-500g) were sacrificed by decapitation and the brains were removed and placed in ice-cold 50 mM, Tris HCl plus 7.58 g/L Trizma-7.4 (pH 7.4 at 25°C) Cerebral cortex was dissected and used as a receptor source. […] The supernatant was aspirated and discarded, pellets were counted with a Beckman gamma 5000.

## CCOC(=O)C(CCc1ccccc1)NC1CCc2ccccc2N(CC(=O)COC(C)=O)C1=O (stereo not shown) [1-(3-Acetoxy-2-oxopropyl)-3-(1-carboethoxy-3-phenyl-1-propyl)amino homodihydrocarbostyril]
  IC50: 25 µM
